Assay results from US10705094B2, “TNF receptor signaling modulator assay” (UCB Biopharma SRL, priority 2015, dated 2020).

Columns and labels:
h-TNFα = h-TNFα (Homo sapiens, UniProt P01375); experiment: Monomer exchange in TNFα trimers by mass spectrometry, compound pre-incubated with human TNFα; assay type: binding; conditions: 18 hours; for off-rate from h-TNFα: 1:1 complex with h-TNFα mixed with m-TNFα; for cross species monomer subunit exchange: compound preincubated with h-TNFα, then m-TNFα added
Description: Human and mouse homotrimers of TNFα (H3 and M3 respectively) were incubated together and aliquots of the solution monitored by mass spectrometry appearance of the cross species heterotrimers. The mass spectrometric analysis confirmed that monomer exchange between native TNFα trimers was able to occur in solution. The exchange rate was slow and was monitored over a course of 4 hours before full equilibration was achieved (data not shown). The mechanism is unknown, although is it unlikely to involve formation of the dimeric forms as none of these were observed. Monomer exchange is likely to be occurring between pure human and mouse trimers, the mixing of mouse and human trimers simply makes this exchange visible by mass spectrometry.
In a second series of experiments an excess of the compound of formula (1) was incubated with Human TNFα, the excess compound of formula (1) was then removed. Mass Spectral analysis confirmed that a 1:1 complex had been formed between the compound of formula (1) and h-TNFα. Mouse TNFα was now added to this sample which was then subjected to mass spectral analysis over a number of hours. After 18 hours there was no observed change in the composition of the sample. […] In addition, there was no evidence of formation of the M3L species and no evidence of formation of the unligated H3 species.
These two experiments were then repeated with the compound of formula (2) instead of the compound of formula (1). The results when the compound of formula (2) was pre-incubated with h-TNFα to give a 1:1 complex and then mixed with unligated m-TNFα were the same as with the compound of formula (1).

TNFα [1] = target: T1, TNFα (Homo sapiens, UniProt P01375); experiment: Fluorescence polarization assay, competition with the compound of formula (4) for TNFα; conditions: TNFα 50 nM, compound of formula (4) 10 nM, 5% DMSO; read-out: IC50 (inhibition of binding of the compound of formula (4) to TNFα)
Description: The final concentrations of TNFα and the compound of formula (4) were 50 nM and 10 nM respectively in a total assay volume of 25 μl. Plates were read on an Analyst HT reader. An IC50 was calculated using xlfit (4 parameter logistic model) in Activity Base.
C87 was preincubated with TNFα for 1 hour prior to assay against the fluorescent compound (probe). Competition with the fluorescent compound either directly (binding at the same site) or indirectly (disrupting TNF) is detected by a reduction in FP.

TNFα [2] = target: T1, TNFα; experiment: L929 murine fibrosarcoma cell-killing (neutralisation) assay; assay type: cell-based, mouse; design: host or cells: added to L929 murine fibrosarcoma cells (ECACC, 85011425); conditions: L929 cells; read-out: IC50 (inhibition of cell killing activity of human TNFα)
Description: The L929 neutralisation assays were carried out using the protocol disclosed in Baarsch M J J et al (Immunol Methods 1991; 140: 15-22) and Galloway C J et al J (Immunol Methods 1991; 140: 37-43).
Briefly, L929 cells (ECACC, 85011425) were cultured in culture medium consisting of RPMI 1640 (Gibco) containing 10% FCS (PAA), 2 mM glutamine (Gibco), 50 U/ml penicillin (Gibco) and 50 μg/ml streptomycin (Gibco). When they were subcultured, the cells were washed three times with 10 mL Dulbecco's phosphate-buffered saline without calcium and magnesium (Gibco) and 3 ml of trypsin-EDTA (Gibco) was then added for 2 minutes to remove the cells from the flask. Culture medium was added to neutralise the trypsin and the cells pipetted up and down to remove any clumps.
The L929 cells were split 1/2 or 1/3 the day before use and cultured for a further 24 hours. The flasks were then trypsinised as above and 2×10^4 cells in 100 μl were added per well of a 96 well flat-bottomed plate (Becton Dickinson). The plates were cultured for 24 hours before the assay was set up.
Serial dilutions were made from DMSO stocks of the compounds.
The assay medium was the same as culture medium but also contained 1 μg/ml actinomycin D (Sigma). The medium was flicked off the plates and the assay samples plus TNFα, standards and controls were added in 100 μl volumes in duplicate. Plates were incubated for a further 16 hours and then 10 μl per well of a 5 mg/ml methylthiazoletetrazolium (MTT; Sigma) solution in culture medium was added for a further 4 hours. The reaction was stopped by the addition of 100 μl of solubilisation buffer containing 20% sodium dodecyl sulphate (SDS, BDH) dissolved in 50% dimethyl formamide (DMF; BDH) and 50% deionised water.
After overnight incubation at 37° C. to allow the dye to dissolve, the plates were read on a Multiskan EX plate reader (Labsystem) at 570 nm with subtraction at 630 nm. Data were analysed using the Genesis software package.

TNFα [3] = target: T1, TNFα; experiment: Fluorescence probed thermal denaturation assay (Thermofluor) of TNFα; assay type: binding; conditions: TNFα + 5% DMSO + compound
Description: A fluorescence probed thermal denaturation assay was performed to assess the effect of the compounds on the thermal stability of TNFα as a measure of compound binding. The reaction mix contained 5 μl of 30×SYPRO® Orange dye (Invitrogen) and 5 μl of TNFα (at 1.0 mg/ml), 37.5 μl PBS, pH 7.4 and 2.5 μl of compound (at 2 mM in DMSO). 10 μl of the mix was dispensed in quadruplicate into a 384 PCR optical well plate and was run on a 7900HT Fast Real-Time PCR System ([…]). PCR System heating device was set at 20° C. to 99° C. with a ramp rate of 1.1° C./min; fluorescence changes in the wells were monitored by a Charge-coupled device (CCD). The fluorescence intensity increase was plotted as a function of temperature and the Tm calculated as the midpoint of this denaturation curve (determined as the point of inflection) (Table 1).
Thermofluor measures the change of melting temperature (Tm) of TNFα due to compound either stabilising or disrupting the protein.

T1 sequence (P01375 77-233 limits assumed): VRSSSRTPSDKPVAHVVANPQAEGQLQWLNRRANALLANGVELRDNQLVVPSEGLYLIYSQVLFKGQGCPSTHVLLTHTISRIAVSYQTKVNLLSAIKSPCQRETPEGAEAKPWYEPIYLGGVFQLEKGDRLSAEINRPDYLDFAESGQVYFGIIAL
h-TNFα, sequence (P01375 77-233 limits assumed): as above

## Cc1ccc(C)c(Cn2c(C(O)c3ccncc3)nc3ccccc32)c1 (stereo not shown) [Compound (1), [1-(2,5-Dimethylbenzyl)-1H-benzimidazol-2-yl](pyridin-4-yl)methanol]
h-TNFα
  off-rate from h-TNFα: no measurable off-rate
  cross species monomer subunit exchange: no cross species monomer subunit exchange was observed
TNFα [1]
  IC50: 167 nM
TNFα [2]
  IC50: 306 nM
TNFα [3]
  Tm difference (=(TNF + cpd) − (TNF + DMSO)): 11.8

## Cc1ccc(C)c(Cn2c(C(O)c3ccncc3)nc3ccc(-c4cnn(C)c4)cc32)c1 (stereo not shown) [Compound (2), [1-(2,5-Dimethylbenzyl)-6-(1-methyl-1H-pyrazol-4-yl)-1H-benzimidazol-2-yl](pyridin-4-yl)methanol]
h-TNFα
  off-rate from h-TNFα: no measurable off-rate
  cross species monomer subunit exchange: No monomer subunit exchange was observed
TNFα [1]
  IC50: 102 nM
TNFα [2]
  IC50: 125 nM
TNFα [3]
  Tm difference (=(TNF + cpd) − (TNF + DMSO)): 17.1
